Reference: ChEMBL document CHEMBL3885861, “Open TG-GATES”

Species on record: Rattus norvegicus
Assay: Open TG-GATES - Regimen: Daily Repeat
Format: toxicity, organism-based, Sprague-Dawley
Parameters: regimen Daily Repeat, gender Male, age 6 weeks
Settings: in vivo, po, route gavage; for APTT / Bas / Eos / Fbg / Hb / Ht / Lym / MCH / MCHC / MCV / Mono / Neu / PT / Plat / RBC / Ret / WBC: tissue Blood; for KIDNEY_L / KIDNEY_R / KIDNEY_TOTAL: tissue Kidney; for LIVER: tissue Liver; for ALP / ALT / AST / BUN / CRE / Ca / Cl / DBIL / GLC / IP / K / LDH / Na / PL / RALB / TBIL / TC / TG / TP / gamma-GTP: tissue Plasma
[1] = 0 mg/kg, 72 h, dose level Control, time 3 day
[2] = 0 mg/kg, […], dose level Control, time 7 day
[3] = 0 mg/kg, […], dose level Control, time 14 day
[4] = 0 mg/kg, […], dose level Control, time 28 day
[5] = 100 mg/kg, 72 h, dose level Low, time 3 day
[6] = 100 mg/kg, […], dose level Low, time 7 day
[7] = 100 mg/kg, […], dose level Low, time 14 day
[8] = 100 mg/kg, […], dose level Low, time 28 day

## COC(=O)C1=C(C)NC(C)=C(C(=O)OC)C1c1ccccc1[N+](=O)[O-] [NIFEDIPINE]
[1]
  TERMINAL_BW: 227.8 g
  APTT: 16.7 s
  Bas: 0.4%
  Eos: 1%
  Fbg: 313.6 mg/dL
  Hb: 13.4 g/dL
  Ht: 41.3%
  Lym: 80.2%
  MCH: 20.8 pg
  MCHC: 32.5%
  MCV: 64.2 fL
  Mono: 3.2%
  Neu: 14%
  PT: 14.5 s
  Plat: 122.9 x10_4/uL
  RBC: 643.8 x10_4/ul
  Ret: 7.5%
  WBC: 94.6 x10_2/uL
  KIDNEY_L: 1 g
  KIDNEY_R: 1 g
  KIDNEY_TOTAL: 2 g
  LIVER: 10.4 g
  ALP: 1654.8 IU/L
  ALT: 47.6 IU/L
  AST: 71.4 IU/L
  BUN: 14 mg/dL
  CRE: 0.2 mg/dL
  Ca: 11.1 mg/dL
  Cl: 106 meq/L
  DBIL: 0.014 mg/dL
  GLC: 179.2 mg/dL
  IP: 7.7 mg/dL
  K: 4.2 meq/L
  LDH: 85.4 IU/L
  Na: 144.8 meq/L
  PL: 162 mg/dL
  RALB: 2.7 g/dL
  TBIL: 0.028 mg/dL
  TC: 83.8 mg/dL
  TG: 109.2 mg/dL
  TP: 5.8 g/dL
  gamma-GTP: 1 IU/L
[2]
  TERMINAL_BW: 262.8 g
  APTT: 16.1 s
  Bas: 0.4%
  Eos: 1.4%
  Fbg: 286.6 mg/dL
  Hb: 13.7 g/dL
  Ht: 42%
  Lym: 75.8%
  MCH: 21 pg
  MCHC: 32.7%
  MCV: 64.1 fL
  Mono: 3%
  Neu: 18.2%
  PT: 14.2 s
  Plat: 133.6 x10_4/uL
  RBC: 656.4 x10_4/ul
  Ret: 5.7%
  WBC: 100.3 x10_2/uL
  KIDNEY_L: 1 g
  KIDNEY_R: 1 g
  KIDNEY_TOTAL: 2.1 g
  LIVER: 12.1 g
  ALP: 1580.4 IU/L
  ALT: 42.6 IU/L
  AST: 68.6 IU/L
  BUN: 15.4 mg/dL
  CRE: 0.2 mg/dL
  Ca: 11 mg/dL
  Cl: 106.4 meq/L
  DBIL: 0.014 mg/dL
  GLC: 183.6 mg/dL
  IP: 7.4 mg/dL
  K: 4 meq/L
  LDH: 98.2 IU/L
  Na: 145.2 meq/L
  PL: 159.2 mg/dL
  RALB: 2.7 g/dL
  TBIL: 0.026 mg/dL
  TC: 82.4 mg/dL
  TG: 111.8 mg/dL
  TP: 5.9 g/dL
  gamma-GTP: 1 IU/L
[3]
  TERMINAL_BW: 320 g
  APTT: 18.1 s
  Bas: 0%
  Eos: 1%
  Fbg: 320.8 mg/dL
  Hb: 14.8 g/dL
  Ht: 44.1%
  Lym: 79.2%
  MCH: 20.6 pg
  MCHC: 33.5%
  MCV: 61.3 fL
  Mono: 3%
  Neu: 15.6%
  PT: 14.2 s
  Plat: 117.8 x10_4/uL
  RBC: 720.2 x10_4/ul
  Ret: 4.2%
  WBC: 101 x10_2/uL
  KIDNEY_L: 1.2 g
  KIDNEY_R: 1.2 g
  KIDNEY_TOTAL: 2.5 g
  LIVER: 13.8 g
  ALP: 1854.8 IU/L
  ALT: 41.8 IU/L
  AST: 65 IU/L
  BUN: 16 mg/dL
  CRE: 0.2 mg/dL
  Cl: 105.6 meq/L
  DBIL: 0.012 mg/dL
  GLC: 184 mg/dL
  IP: 7.3 mg/dL
  K: 4 meq/L
  LDH: 57.8 IU/L
  Na: 144.2 meq/L
  PL: 158.8 mg/dL
  RALB: 2.8 g/dL
  TBIL: 0.024 mg/dL
  TC: 75.4 mg/dL
  TG: 150.8 mg/dL
  TP: 6 g/dL
  gamma-GTP: 1 IU/L
[4]
  TERMINAL_BW: 416 g
  APTT: 16.7 s
  Bas: 0.4%
  Eos: 1%
  Fbg: 313.6 mg/dL
  Hb: 13.4 g/dL
  Ht: 41.3%
  Lym: 80.2%
  MCH: 20.8 pg
  MCHC: 32.5%
  MCV: 64.2 fL
  Mono: 3.2%
  Neu: 14%
  PT: 14.5 s
  Plat: 122.9 x10_4/uL
  RBC: 643.8 x10_4/ul
  Ret: 7.5%
  WBC: 94.6 x10_2/uL
  KIDNEY_L: 1.4 g
  KIDNEY_R: 1.4 g
  KIDNEY_TOTAL: 2.7 g
  LIVER: 17.4 g
  ALP: 1068.6 IU/L
  ALT: 36.2 IU/L
  AST: 63 IU/L
  BUN: 17.4 mg/dL
  CRE: 0.3 mg/dL
  Ca: 10.7 mg/dL
  Cl: 104.4 meq/L
  DBIL: 0.01 mg/dL
  GLC: 192.8 mg/dL
  IP: 6.1 mg/dL
  K: 3.9 meq/L
  LDH: 66 IU/L
  Na: 143.8 meq/L
  PL: 161.6 mg/dL
  RALB: 2.8 g/dL
  TBIL: 0.026 mg/dL
  TC: 75 mg/dL
  TG: 175.2 mg/dL
  TP: 6.3 g/dL
  gamma-GTP: 0.8 IU/L
[5]
  TERMINAL_BW: 223 g
  APTT: 17.6 s
  Bas: 0%
  Eos: 1%
  Fbg: 281.6 mg/dL
  Hb: 13.6 g/dL
  Ht: 42.3%
  Lym: 71.4%
  MCH: 20.7 pg
  MCHC: 32.3%
  MCV: 64 fL
  Mono: 3.4%
  Neu: 23.6%
  PT: 13.8 s
  Plat: 130.7 x10_4/uL
  RBC: 660.2 x10_4/ul
  Ret: 9.2%
  WBC: 96 x10_2/uL
  KIDNEY_L: 0.9 g
  KIDNEY_R: 0.9 g
  KIDNEY_TOTAL: 1.9 g
  LIVER: 11 g
  ALP: 1508 IU/L
  ALT: 46.6 IU/L
  AST: 65.8 IU/L
  BUN: 15 mg/dL
  CRE: 0.2 mg/dL
  Ca: 10.9 mg/dL
  Cl: 107 meq/L
  DBIL: 0.014 mg/dL
  GLC: 173.4 mg/dL
  IP: 6.8 mg/dL
  K: 4.5 meq/L
  LDH: 88.6 IU/L
  Na: 143.2 meq/L
  PL: 152 mg/dL
  RALB: 2.7 g/dL
  TBIL: 0.028 mg/dL
  TC: 82.2 mg/dL
  TG: 98.8 mg/dL
  TP: 5.7 g/dL
  gamma-GTP: 1 IU/L
[6]
  TERMINAL_BW: 261.8 g
  APTT: 14.8 s
  Bas: 0.2%
  Eos: 1.4%
  Fbg: 283.4 mg/dL
  Hb: 13.8 g/dL
  Ht: 42.1%
  Lym: 73%
  MCH: 20.9 pg
  MCHC: 32.8%
  MCV: 63.8 fL
  Mono: 3%
  Neu: 21.8%
  PT: 13.7 s
  Plat: 125.1 x10_4/uL
  RBC: 659.6 x10_4/ul
  Ret: 6.8%
  WBC: 105.6 x10_2/uL
  KIDNEY_L: 1.1 g
  KIDNEY_R: 1.1 g
  KIDNEY_TOTAL: 2.1 g
  LIVER: 13.2 g
  ALP: 1407 IU/L
  ALT: 47 IU/L
  AST: 67.4 IU/L
  BUN: 17.4 mg/dL
  CRE: 0.2 mg/dL
  Ca: 10.7 mg/dL
  Cl: 106.2 meq/L
  DBIL: 0.014 mg/dL
  GLC: 174.8 mg/dL
  IP: 6.8 mg/dL
  K: 4.2 meq/L
  LDH: 86.4 IU/L
  Na: 143.8 meq/L
  PL: 144 mg/dL
  RALB: 2.7 g/dL
  TBIL: 0.028 mg/dL
  TC: 77.4 mg/dL
  TG: 93.4 mg/dL
  TP: 5.9 g/dL
  gamma-GTP: 1 IU/L
[7]
  TERMINAL_BW: 322.2 g
  APTT: 19 s
  Bas: 0.2%
  Eos: 1%
  Fbg: 260.4 mg/dL
  Hb: 14.5 g/dL
  Ht: 43.7%
  Lym: 72.4%
  MCH: 21.1 pg
  MCHC: 33.2%
  MCV: 63.6 fL
  Mono: 2.8%
  PT: 14 s
  Plat: 113.8 x10_4/uL
  RBC: 688 x10_4/ul
  Ret: 5.4%
  WBC: 110.8 x10_2/uL
  KIDNEY_L: 1.2 g
  KIDNEY_R: 1.2 g
  KIDNEY_TOTAL: 2.5 g
  LIVER: 15 g
  ALP: 1646.4 IU/L
  ALT: 44.4 IU/L
  AST: 71.4 IU/L
  BUN: 17.6 mg/dL
  CRE: 0.2 mg/dL
  Ca: 11 mg/dL
  Cl: 105.8 meq/L
  DBIL: 0.012 mg/dL
  GLC: 177.4 mg/dL
  IP: 6.7 mg/dL
  K: 4.2 meq/L
  LDH: 46.2 IU/L
  Na: 143.2 meq/L
  PL: 149.6 mg/dL
  RALB: 2.7 g/dL
  TBIL: 0.026 mg/dL
  TC: 73.6 mg/dL
  TP: 5.9 g/dL
  gamma-GTP: 1 IU/L
[8]
  TERMINAL_BW: 378.4 g
  APTT: 17.6 s
  Bas: 0%
  Eos: 1%
  Fbg: 281.6 mg/dL
  Hb: 13.6 g/dL
  Ht: 42.3%
  Lym: 71.4%
  MCH: 20.7 pg
  MCHC: 32.3%
  MCV: 64 fL
  Mono: 3.4%
  Neu: 23.6%
  PT: 13.8 s
  Plat: 130.7 x10_4/uL
  RBC: 660.2 x10_4/ul
  Ret: 9.2%
  WBC: 96 x10_2/uL
  KIDNEY_L: 1.3 g
  KIDNEY_R: 1.3 g
  KIDNEY_TOTAL: 2.6 g
  LIVER: 15.4 g
  ALP: 1032.8 IU/L
  ALT: 39.6 IU/L
  AST: 71.2 IU/L
  BUN: 17.2 mg/dL
  CRE: 0.3 mg/dL
  Ca: 10.4 mg/dL
  Cl: 107.4 meq/L
  DBIL: 0.012 mg/dL
  GLC: 167.8 mg/dL
  IP: 5.6 mg/dL
  K: 3.9 meq/L
  LDH: 61.8 IU/L
  Na: 143.8 meq/L
  PL: 135 mg/dL
  RALB: 2.8 g/dL
  TBIL: 0.024 mg/dL
  TC: 64.6 mg/dL
  TG: 117.8 mg/dL
  TP: 6.1 g/dL
